Experimental data published in US11319347B2, “Peptide compound and method for producing same, composition for screening use, and method for selecting peptide compound” (FUJIFILM Corporation, priority 2017, dated 2022).
Starred links: 1 amine or outer side, 2 acyl side, 3 side chain; linkers in the order of their positions; H or OH if unused. Positions of bridges follow the written chain, without caps; N, C: chain ends. Non-standard residues stand in square brackets, D forms with d. Residues, ends and D or L forms follow the SMILES beside them. ξ: configuration not given here. 2Pal(6-thiazolin-2-yl-4R-CO) = O=C([C@H](Cc1cccc(C2=N[C@H](C(=O)[*:3])CS2)n1)N[*:1])[*:2]; Ile(3ξ) = CCC(C)[C@H](N)C(=O)O

Target: Mcl-1
Assay: Binding of synthetic peptide to target protein by surface plasmon resonance (SPR, Biacore T200)
Conditions: 25° C., immobilized Mcl-1, Table 51, read-out: Binding evaluation result (KD)
Experimental: Preparation of Target Protein
A plasmid construct was prepared in which a gene containing the amino acid 1-172 portion of MCL-1 was introduced into plasmid pET28a, and a His6 tag, MBP, and a TEV protease recognition sequence were attached to the N terminal side thereof. This plasmid was transformed into E. coli strain BL21 (DE3) RIPL which was then cultured at 30° C. In a case where the O.D. reached 0.8, IPTG […] was added to induce large-scale expression, followed by culturing at 16° C. overnight. The recovered bacterial cells were suspended in Lysis Buffer A (25 mmol/L Tris (pH 7.5), 150 mmol/L NaCl), and then disrupted by sonication. This was followed by centrifugation at 15 krpm for 15 minutes. The supernatant after centrifugation was purified using a Ni-NTA resin (manufactured by QIAGEN GmbH). The sample adsorbed to the Ni-NTA resin was washed with Lysis Buffer A containing 15 mmol/L imidazole and then eluted with Lysis Buffer A containing 200 mmol/L imidazole. The sample was stored at −80° C. after substitution with Lysis buffer by dialysis.
Evaluation of Binding of Synthetic Peptide to Target Protein Using Surface Plasmon Resonance (SPR)
An SPR experiment for analyzing the interaction of a synthetic peptide with Mel-1 was carried out at 25° C. using Biacore T200 (manufactured by GE Healthcare Inc.). The synthetic peptide was added to the immobilized protein, and the interaction therebetween was evaluated.
A buffer obtained by adding dimethylformamide (DMF) or dimethylsulfoxide (DMSO) to a final concentration of 1 vol % to HBS-EP+ (manufactured by GE Healthcare Inc.) was used as a running buffer. Mcl-1 was immobilized on a Biacore Sensor Chip Series S Sensor Chip CM5 (manufactured by GE Healthcare Inc.) using an Amine Coupling Kit (manufactured by GE Healthcare Inc.). In order to measure the dissociation constant (KD), each synthetic peptide was added at multiple concentrations to obtain a sensorgram of binding to immobilized Mel-1.
The analysis of the obtained sensorgram was carried out using T200 evaluation software (manufactured by GE Healthcare Inc.). Solvent correction to DMF or DMSO was carried out, and then the KD was determined by equilibrium value analysis using a sensorgram obtained by subtracting the sensorgram to a flow cell in which Mcl-1 is not immobilized.
One having a KD of less than 50 μmol/L is denoted as A, and one having a KD of 50 μmol/L or more is denoted as B.
Binding of the synthetic peptide to the target protein was evaluated in the same manner as described above.

`CC(C)C[C@@H]1NC(=O)[C@H](Cc2ccccc2)NC(=O)[C@H](C)NC(=O)[C@@H]2CCCN2C(=O)[C@H](Cc2c[nH]c3ccccc23)NC(=O)[C@H](CC(C)C)NC(=O)[C@@H](CS)NC(=O)[C@H](C)NC(=O)C(Cc2c[nH]c3ccccc23)NC(=O)[C@H](CO)NC(=O)C(CCCNC(=N)N)NC(=O)[C@@H]2CSC(=N2)c2cccc(n2)C[C@H](C(N)=O)NC(=O)[C@H](Cc2ccc(O)cc2)NC(=O)[C@H](Cc2c[nH]c3ccccc23)NC1=O` (stereo partly drawn) [Cyclic peptide a-5-1] and `CC(C)C[C@@H]1NC(=O)[C@H](C)NC(=O)[C@H](Cc2ccccc2)NC(=O)[C@H](C)NC(=O)[C@@H]2CCCN2C(=O)[C@H](Cc2c[nH]c3ccccc23)NC(=O)[C@H](CC(C)C)NC(=O)[C@H](CS)NC(=O)[C@H](C)NC(=O)[C@H](Cc2c[nH]c3ccccc23)NC(=O)[C@@H]2CSC(=N2)c2cccc(n2)C[C@@H](C(N)=O)NC(=O)[C@H](CC(C)C)NC(=O)[C@H](Cc2c[nH]c3ccccc23)NC(=O)[C@H](CO)NC1=O` [Cyclic peptide a-5-8] (WACLWPAFALSWL[2Pal(6-thiazolin-2-yl-4R-CO)]-NH2; lactam N-14) cannot be ordered by Kd: ≥ 50 µM for the first, ≥ 50 µM for the second.

`CC(C)C[C@@H]1NC(=O)[C@H](C)NC(=O)[C@@H](Cc2ccccc2)NC(=O)[C@@H]2CSC(=N2)c2cccc(n2)C[C@@H](C(N)=O)NC(=O)[C@H](Cc2ccccc2)NC(=O)[C@H](C)NC(=O)[C@H](CC(C)C)NC(=O)[C@@H]2CCCN2C(=O)[C@@H](CC(C)C)NC(=O)[C@@H](Cc2ccccc2)NC(=O)[C@H](CCC(N)=O)NC(=O)[C@@H]2CCCN2C(=O)[C@@H](Cc2c[nH]c3ccccc23)NC(=O)[C@H](CC(C)C)NC1=O` [Cyclic peptide a-5-3] ([dF]ALL[dW]PQ[dF][dL]PLAF[2Pal(6-thiazolin-2-yl-4R-CO)]-NH2; lactam N-14) and `CC(C)C[C@@H]1NC(=O)CNC(=O)[C@@H]2CCCN2C(=O)[C@H](CCC(=O)O)NC(=O)[C@H](Cc2ccccc2)NC(=O)[C@H](CO)NC(=O)[C@@H]2CSC(=N2)c2cccc(n2)C[C@@H](C(N)=O)NC(=O)[C@H](CC(C)C)NC(=O)[C@H](C(C)C)NC(=O)[C@H](CCCNC(=N)N)NC(=O)[C@H](Cc2ccccc2)NC(=O)[C@H](CC(C)C)NC(=O)[C@H](Cc2c[nH]c3ccccc23)NC(=O)[C@H](Cc2c[nH]c3ccccc23)NC1=O` [Cyclic peptide a-5-5] (SFEPGLWWLFRVL[2Pal(6-thiazolin-2-yl-4R-CO)]-NH2; lactam N-14) cannot be ordered by Kd: ≥ 50 µM for the first, < 50 µM for the second.

`CC(C)C[C@@H]1NC(=O)[C@H](C(C)C)NC(=O)[C@H](CO)NC(=O)[C@H](Cc2ccccc2)NC(=O)[C@H](C)NC(=O)[C@H](Cc2c[nH]c3ccccc23)NC(=O)[C@@H]2CSC(=N2)c2cccc(n2)C[C@H](C(N)=O)NC(=O)[C@H](Cc2c[nH]c3ccccc23)NC(=O)[C@H](C(C)C)NC(=O)[C@@H]2CCCN2C(=O)[C@H](Cc2ccccc2)NC(=O)[C@H](Cc2c[nH]c3ccccc23)NC(=O)[C@@H]2CCCN2C(=O)[C@H](Cc2c[nH]c3ccccc23)NC1=O` [Cyclic peptide a-5-2] and `CC(C)C[C@@H]1NC(=O)[C@H](Cc2c[nH]c3ccccc23)NC(=O)[C@@H]2CCCN2C(=O)[C@H](Cc2c[nH]c3ccccc23)NC(=O)[C@H](CC(C)C)NC(=O)[C@H](C(C)C)NC(=O)[C@H](CS)NC(=O)[C@H](Cc2c[nH]c3ccccc23)NC(=O)[C@H](CO)NC(=O)[C@@H]2CSC(=N2)c2cccc(n2)C[C@@H](C(N)=O)NC(=O)CNC(=O)[C@H](Cc2c[nH]c3ccccc23)NC(=O)[C@H](Cc2ccccc2)NC(=O)[C@H](C(C)C)NC1=O` [Cyclic peptide a-5-6] (SWCVLWPWLVFWG[2Pal(6-thiazolin-2-yl-4R-CO)]-NH2; lactam N-14) cannot be ordered by Kd: ≥ 50 µM for the first, ≥ 50 µM for the second.

`CCC(C)[C@@H]1NC(=O)[C@@H]2CCCN2C(=O)[C@H](Cc2c[nH]c3ccccc23)NC(=O)[C@H](CC(C)C)NC(=O)[C@H](CC(C)C)NC(=O)[C@H](C(C)C)NC(=O)[C@H](Cc2c[nH]c3ccccc23)NC(=O)[C@@H]2CCCN2C(=O)[C@@H]2CSC(=N2)c2cccc(n2)C[C@@H](C(N)=O)NC(=O)[C@H](CC(C)C)NC(=O)[C@H](CO)NC(=O)[C@@H]2CCCN2C(=O)[C@H](C(C)C)NC(=O)[C@H](CC(C)C)NC1=O` (stereo partly drawn) [Cyclic peptide a-5-7] (PWVLLWP[Ile(3ξ)]LVPSL[2Pal(6-thiazolin-2-yl-4R-CO)]-NH2; lactam N-14) and `CC(C)C[C@@H]1NC(=O)[C@H](C(C)C)NC(=O)[C@H](CO)NC(=O)[C@H](Cc2c[nH]c3ccccc23)NC(=O)[C@@H]2CSC(=N2)c2cccc(n2)C[C@@H](C(N)=O)NC(=O)[C@H](CO)NC(=O)[C@H](C(C)C)NC(=O)[C@H](CO)NC(=O)[C@@H]2CCCN2C(=O)[C@H](C(C)C)NC(=O)[C@H](Cc2ccccc2)NC(=O)[C@H](Cc2c[nH]c3ccccc23)NC(=O)[C@@H]2CCCN2C(=O)[C@H](Cc2c[nH]c3ccccc23)NC1=O` [Cyclic peptide a-5-4] (WSVLWPWFVPSVS[2Pal(6-thiazolin-2-yl-4R-CO)]-NH2; lactam N-14) cannot be ordered by Kd: ≥ 50 µM for the first, < 50 µM for the second.

Same assay, conditions: immobilized Mcl-1, Table 53 (peptides from mRNA display), read-out: Binding evaluation result (KD)

`CC[C@H](C)[C@@H]1NC(=O)[C@H](CC(=O)O)NC(=O)[C@@H]2CSC(=N2)c2cc(cs2)CC(C(N)=O)NC(=O)[C@H](CCCNC(=N)N)NC(=O)[C@H](CC(=O)O)NC(=O)CNC(=O)[C@H](CC(=O)O)NC(=O)[C@H](CCCCN)NC(=O)[C@H](Cc2ccc(O)cc2)NC(=O)[C@H](CC(=O)O)NC(=O)[C@H](Cc2ccc(O)cc2)NC(=O)[C@H](C(C)C)NC(=O)CNC(=O)[C@H](C(C)C)NC1=O` (stereo partly drawn) [a-6-3] and `CC(C)C[C@@H]1NC(=O)[C@H](CC(=O)O)NC(=O)[C@H](CCC(N)=O)NC(=O)[C@H](CC(=O)O)NC(=O)[C@H](CCCCN)NC(=O)[C@H](Cc2ccc(O)cc2)NC(=O)[C@H](CC(=O)O)NC(=O)[C@H](Cc2ccc(O)cc2)NC(=O)[C@H](CCC(=O)O)NC(=O)[C@H](Cc2ccccc2)NC(=O)[C@H](C)NC(=O)CNC(=O)[C@H](C)NC(=O)[C@@H]2CSC(=N2)c2cc(cs2)C[C@H](C(N)=O)NC1=O` [a-6-2] cannot be ordered by Kd: ≥ 50 µM for the first, ≥ 50 µM for the second.

`CC(C)C[C@H](NC(=O)[C@H](CC(=O)O)NC(=O)[C@H](CCCCN)NC(=O)[C@@H](NC(=O)[C@H](C)NC(=O)[C@H](C)NC(=O)[C@H]1Cc2csc(c2)C2=N[C@@H](CS2)C(=O)N[C@@H](CC(=O)O)C(=O)N[C@@H](CO)C(=O)N[C@@H](Cc2ccc(O)cc2)C(=O)N1)C(C)C)C(=O)N[C@@H](CCC(=O)O)C(=O)N[C@@H](CC(N)=O)C(=O)N[C@@H](C)C(=O)N[C@@H](Cc1csc(C#N)c1)C(N)=O` [a-6-7] and `CC[C@H](C)[C@@H]1NC(=O)[C@H](CO)NC(=O)[C@H](CCCNC(=N)N)NC(=O)[C@H](CC(C)C)NC(=O)[C@H]([C@@H](C)O)NC(=O)[C@H](CO)NC(=O)[C@H](C)NC(=O)[C@H]([C@@H](C)O)NC(=O)[C@H](CCC(=O)O)NC(=O)[C@H](CCC(=O)O)NC(=O)[C@@H]2CSC(=N2)c2cc(cs2)C[C@@H](C(N)=O)NC(=O)[C@H](CO)NC(=O)[C@H](CC(=O)O)NC(=O)CNC1=O` [a-6-4] cannot be ordered by Kd: < 50 µM for the first, < 50 µM for the second.

`CC[C@H](C)[C@@H]1NC(=O)[C@H](CO)NC(=O)[C@H](CO)NC(=O)[C@H](CC(C)C)NC(=O)[C@H]([C@@H](C)O)NC(=O)[C@H]([C@@H](C)O)NC(=O)[C@@H]2CSC(=N2)c2cc(cs2)C[C@@H](C(N)=O)NC(=O)[C@H](CCCNC(=N)N)NC(=O)[C@H](CCCNC(=N)N)NC(=O)[C@H](CC(=O)O)NC(=O)[C@H](C(C)C)NC(=O)[C@H](CCC(N)=O)NC(=O)[C@H](CC(=O)O)NC(=O)CNC1=O` [a-6-5] and `CC[C@H](C)[C@@H]1NC(=O)[C@H](CCC(N)=O)NC(=O)[C@H](CCCNC(=N)N)NC(=O)[C@H](CC(C)C)NC(=O)CNC(=O)[C@H](CC(=O)O)NC(=O)[C@H](C(C)C)NC(=O)[C@H](C(C)C)NC(=O)[C@H](CC(N)=O)NC(=O)[C@@H]2CCCN2C(=O)[C@@H]2CSC(=N2)c2cc(cs2)CC(C(N)=O)NC(=O)[C@H]([C@@H](C)O)NC(=O)[C@H](CC(=O)O)NC(=O)CNC1=O` (stereo partly drawn) [a-6-6] cannot be ordered by Kd: < 50 µM for the first, < 50 µM for the second.

`CC(C)C[C@@H]1NC(=O)[C@@H]2CCCN2C(=O)[C@H](Cc2c[nH]c3ccccc23)NC(=O)[C@H](Cc2ccccc2)NC(=O)[C@H]([C@H](C)O)NC(=O)[C@@H]2CCCN2C(=O)[C@H](CC(=O)O)NC(=O)[C@H](CS)NC(=O)[C@H](Cc2ccc(O)cc2)NC(=O)[C@H](CCC(=O)O)NC(=O)[C@@H]2CSC(=N2)c2cc(cs2)C[C@@H](C(N)=O)NC(=O)[C@H](CCCNC(=N)N)NC(=O)[C@H](CCCNC(=N)N)NC(=O)[C@H](Cc2ccccc2)NC1=O` [a-6-1] was tested, and the Kd was < 50 µM.
